Counter-ions that a name gives are not always drawn. Like-named read-outs stand apart in the source and are kept apart here.
Key:
[1] = tested on: HIV strain containing the Y181C mutation; assay: Spread assay: inhibition of acute HIV-1 infection of T-lymphoid cells (Y181C); assay type: cell-based; settings: Human immunodeficiency virus 1, T-lymphoid, read-out: Spread (Y181C) CIC95 (10% FBS)
Experimental: (§1) Assays for the inhibition of acute HIV-1 infection of T-lymphoid cells (alternatively referred to herein as the “spread assay”) were conducted in accordance with Vacca, J. P. et al., Proc. Natl. Acad. Sci. USA 1994, 91: 4096. The assays tested for inhibition of wild type HIV-1 and of HIV strains containing the Y181C or K103N mutation. […] Table C also reports the CIC95 values of certain of the title compounds of Examples 1-25 obtained in the assays employing the Y181C mutant strain and the K103N mutant strain.

[2] = target: HIV-1 RT enzyme (wild-type) (Human immunodeficiency virus type 1 group M subtype B, UniProt P04585); assay: ECL assay for inhibition of HIV reverse transcriptase (WT); assay type: biochemical
Experimental: (§2) 100 μL reaction mixtures were initiated with a combination of primer-template substrate (10 nM final concentration) and dNTPs (0.6 μM dNTPs, 1.25 μM BrdUTP). The heterodimeric nucleic acid substrate was generated by annealing the DNA primer pD500 (described in Shaw-Reid et al., J. Biol. Chem., 278: 2777-2780; obtained from Integrated DNA Technologies) to t500, a 500 nucleotide RNA template created by in vitro transcription (see Shaw-Reid et al., J. Biol. Chem., 278: 2777-2780). After 1 hour incubation at 37° C., reactions were quenched by 10 μL of 1 N NaOH. Microtiter plates were incubated for an additional 30 minutes at room temperature and then neutralized with 10 μL of 1 N HCl. A mixture of detection buffer containing ruthenylated anti-BrdU antibody and streptavidin coated magnetic beads were added to the plate and incubated at room temperature for 1.5 hours prior to quantification via electrochemiluminescence instrument.

wild type HIV-1 = assay: Spread assay: inhibition of acute HIV-1 infection of T-lymphoid cells (WT); assay type: cell-based; settings: Human immunodeficiency virus 1, T-lymphoid, read-out: Spread (WT) CIC95 (10% FBS)
Experimental: as §1

[3] = target: T1, HIV reverse transcriptase with the K103N mutation (Human immunodeficiency virus type 1 group M subtype B, UniProt P04585, K690N); assay: ECL assay for inhibition of mutant HIV reverse transcriptase (K103N); assay type: biochemical, HIV-1
T1 construct: made in house
Experimental: as §2
(§3) Analogous assays were conducted substituting mutant HIV strains to determine the […] inhibition of compounds of the present invention against mutant HIV reverse transcriptase. In one strain the reverse transcriptase has the Y181C mutation and in the other strain the reverse transcriptase has the K103N mutation. The mutations were generated with the […] site-directed mutagenesis kit (Stratagene).

[4] = tested on: HIV strain containing the K103N mutation; assay: Spread assay: inhibition of acute HIV-1 infection of T-lymphoid cells (K103N); assay type: cell-based; settings: Human immunodeficiency virus 1, T-lymphoid, read-out: Spread (K103N) CIC95 (10% FBS)
Experimental: as §1

[5] = target: T2, HIV reverse transcriptase with the Y181C mutation (Human immunodeficiency virus type 1 group M subtype B, UniProt P04585, Y768C); assay: ECL assay for inhibition of mutant HIV reverse transcriptase (Y181C); assay type: biochemical, HIV-1
T2 construct: made in house
Experimental: as §2, §3

T-lymphoid cells = assay type: cell-based
Experimental: Cytotoxicity was determined by microscopic examination of the cells in each well in the spread assay, wherein a trained analyst observed each culture for any of the following morphological changes as compared to the control cultures: pH imbalance, cell abnormality, cytostatic, cytopathic, or crystallization (i.e., the compound is not soluble or forms crystals in the well). The toxicity value assigned to a given compound is the lowest concentration of the compound at which one of the above changes is observed.

[6] = wild-type HIV-1 RT, read-out: ECL Assay (WT) IC50
[7] = K103N mutant RT, read-out: ECL Assay (K103N) IC50
[8] = Y181C mutant RT, read-out: ECL Assay (Y181C) IC50

Question: Which results are given for `N#Cc1cc(Cl)cc(Oc2cc(CCc3n[nH]c4ncccc34)[nH]c(=O)c2Cl)c1` [Compound 3-8, 3-chloro-5-({3-chloro-2-oxo-6-[2-(1H-pyrazolo[3,4-b]pyridin-3-yl)ethyl]-1,2-dihydropyridin-4-yl}oxy)benzonitrile]?
Answer: IC95 [1]: 19 nM; IC50 [2, 6]: 1.9 nM; IC95 (wild type HIV-1; wild type HIV-1, 10% FBS): 7 nM; IC50 [3, 7]: 4.7 nM; IC95 [4]: 31 nM; IC50 [5, 8]: 3 nM; Cytotoxicity: no cytotoxicity at concentrations up to (T-lymphoid cells): > 833 nM

Question: What does the source list for `N#Cc1cc(Cl)cc(Oc2c(F)c(NCc3n[nH]c4ncccc34)nc(F)c2Cl)c1` [Compound 10-4, 3-chloro-5-({3-chloro-2,5-difluoro-6-[(1H-pyrazolo[3,4-b]pyridin-3-ylmethyl)amino]pyridin-4-yl}oxy)benzonitrile]?
Answer: IC95 [1]: 46 nM; IC50 [2, 6]: 0.5 nM; IC95 (wild type HIV-1; wild type HIV-1, 10% FBS): 28 nM; IC50 [3, 7]: 3.2 nM; IC95 [4]: 62 nM; IC50 [5, 8]: 0.6 nM; Cytotoxicity: no cytotoxicity at concentrations up to (T-lymphoid cells): > 833 nM

Question: `N#Cc1cc(Cl)cc(Oc2cc(Cc3n[nH]c4ncccc34)[nH]c(=O)c2Cl)c1` [Compound 24-7, 3-Chloro-5-{[3-chloro-2-oxo-6-(1H-pyrazolo[3,4-b]pyridin-3-ylmethyl)-1,2-dihydropyridin-4-yl]oxy}benzonitrile] was tested. Which IC95 [1] did it give?
Answer: 6.6 nM

Question: What about the IC50 [2, 6] of the same compound?
Answer: 0.9 nM

Question: And the IC95 (wild type HIV-1; wild type HIV-1, 10% FBS)?
Answer: 2.4 nM

Question: What about the IC50 [3, 7] of the same compound?
Answer: 1.7 nM

Question: And the IC95 [4]?
Answer: 13 nM

Question: And the IC50 [5, 8]?
Answer: 1 nM

Question: And the “Cytotoxicity: no cytotoxicity at concentrations up to” value (“Cytotoxicity: no cytotoxicity” for short) (T-lymphoid cells)?
Answer: > 833 nM

Question: What does the source list for `NS(=O)(=O)c1ccc(NC(=O)Cn2ccc(C(F)(F)F)c(Oc3cc(Cl)cc(Br)c3)c2=O)c(Cl)c1` [Compound 16, N-[4-(aminosulfonyl)-2-chlorophenyl]-2-[3-(3-bromo-5-chlorophenoxy)-2-oxo-4-(trifluoromethyl)pyridin-1(2H)-yl]acetamide]?
Answer: IC95 [1]: 30 nM; IC50 [2, 6]: 1.9 nM; IC95 (wild type HIV-1; wild type HIV-1, 10% FBS): 8 nM; IC50 [3, 7]: 2.8 nM; IC95 [4]: 21 nM; IC50 [5, 8]: 2.6 nM; Cytotoxicity: no cytotoxicity at concentrations up to (T-lymphoid cells): > 833 nM

Question: Which IC95 [1] does the source give for `N#Cc1cc(Cl)cc(Oc2c(C(F)(F)F)ccn(Cc3n[nH]c4ncccc34)c2=O)c1` [Compound 13-2, 3-chloro-5-{[2-oxo-1-(1H-pyrazolo[3,4-b]pyridin-3-ylmethyl)-4-(trifluoromethyl)-1,2-dihydropyridin-3-yl]oxy}benzonitrile] here?
Answer: 8 nM

Question: And the IC50 [2, 6]?
Answer: 1.6 nM

Question: What about the IC95 (wild type HIV-1; wild type HIV-1, 10% FBS) of the same compound?
Answer: 4 nM

Question: What about the IC50 [3, 7] of the same compound?
Answer: 2.6 nM

Question: What about the IC95 [4] of the same compound?
Answer: 6 nM

Question: What about the IC50 [5, 8] of the same compound?
Answer: 2 nM

Question: What about the “Cytotoxicity: no cytotoxicity” value (T-lymphoid cells) of the same compound?
Answer: > 833 nM

Question: `N#Cc1cc(Cl)cc(Oc2nc(NCc3n[nH]c4nc(N)ccc34)c(Cl)cc2F)c1` [Compound 2-7, 3-[(6-{[(6-amino-1H-pyrazolo[3,4-b]pyridin-3-yl)methyl]amino}-5-chloro-3-fluoropyridin-2-yl)oxy]-5-chlorobenzonitrile] was tested. Which IC95 [1] did it give?
Answer: 14 nM

Question: And the IC50 [2, 6]?
Answer: 0.5 nM

Question: What about the IC95 (wild type HIV-1; wild type HIV-1, 10% FBS) of the same compound?
Answer: 3 nM

Question: What about the IC50 [3, 7] of the same compound?
Answer: 0.6 nM

Question: What about the IC95 [4] of the same compound?
Answer: 28 nM

Question: And the IC50 [5, 8]?
Answer: 1 nM

Question: And the “Cytotoxicity: no cytotoxicity” value (T-lymphoid cells)?
Answer: > 833 nM

Question: With `N#Cc1cc(Cl)cc(Oc2nc(NCc3n[nH]c4ncccc34)c(Cl)cc2F)c1` [Compound 1-7, 3-chloro-5-({5-chloro-3-fluoro-6-[(1H-pyrazolo[3,4-b]pyridin-3-ylmethyl)amino]pyridin-2-yl}oxy)benzonitrile] as the compound, how does the IC95 [1] read?
Answer: 13 nM

Question: What about the IC50 [2, 6] of the same compound?
Answer: 0.3 nM

Question: What about the IC95 (wild type HIV-1; wild type HIV-1, 10% FBS) of the same compound?
Answer: 3 nM

Question: And the IC50 [3, 7]?
Answer: 1.5 nM

Question: And the IC95 [4]?
Answer: 94 nM

Question: And the IC50 [5, 8]?
Answer: 0.4 nM

Question: And the “Cytotoxicity: no cytotoxicity” value (T-lymphoid cells)?
Answer: > 833 nM

Question: `N#Cc1cc(Cl)cc(Oc2c(Cl)c(Cl)cn(Cc3n[nH]c4ncccc34)c2=O)c1` [Compound 23-2, 3-chloro-5-{[4,5-dichloro-2-oxo-1-(1H-pyrazolo[3,4-b]pyridin-3-ylmethyl)-1,2-dihydropyridin-3-yl]oxy}benzonitrile] was tested. Which IC95 [1] did it give?
Answer: 15 nM

Question: And the IC50 [2, 6]?
Answer: 0.96 nM

Question: And the IC95 (wild type HIV-1; wild type HIV-1, 10% FBS)?
Answer: 5 nM

Question: And the IC50 [3, 7]?
Answer: 1.6 nM

Question: What about the IC95 [4] of the same compound?
Answer: 11 nM

Question: What about the IC50 [5, 8] of the same compound?
Answer: 1.3 nM

Question: What about the “Cytotoxicity: no cytotoxicity” value (T-lymphoid cells) of the same compound?
Answer: > 833 nM

Question: With `N#Cc1cc(Cl)cc(Oc2c(C(F)(F)F)ccn(Cc3n[nH]c4nc(N)ccc34)c2=O)c1` [Compound 17-2, 3-{[3-(3-chloro-5-cyanophenoxy)-2-oxo-4-(trifluoromethyl)pyridin-1(2H)-yl]methyl}-1H-pyrazolo[3,4-b]pyridin-6-aminium trifluoroacetate] as the compound, how does the IC95 [1] read?
Answer: 42 nM

Question: What about the IC50 [2] of the same compound?
Answer: 1.9 nM

Question: What about the IC95 (wild type HIV-1) of the same compound?
Answer: 6 nM

Question: And the IC50 [3]?
Answer: 3.1 nM

Question: And the IC95 [4]?
Answer: 11 nM

Question: And the IC50 [5]?
Answer: 2.4 nM

Question: And the “Cytotoxicity: no cytotoxicity” value (T-lymphoid cells)?
Answer: > 833 nM

Question: What does the source list for `N#Cc1cc(Cl)cc(Oc2cc(CCc3n[nH]c4nc(N)ccc34)[nH]c(=O)c2Cl)c1` [Compound 4-4, 3-({6-[2-(6-amino-1H-pyrazolo[3,4-b]pyridin-3-yl)ethyl]-3-chloro-2-oxo-1,2-dihydropyridin-4-yl}oxy)-5-chlorobenzonitrile]?
Answer: IC95 [1]: 438 nM; IC50 [2, 6]: 1.6 nM; IC95 (wild type HIV-1; wild type HIV-1, 10% FBS): 39 nM; IC50 [3, 7]: 14 nM; IC95 [4]: 207 nM; IC50 [5, 8]: 7.9 nM; Cytotoxicity: no cytotoxicity at concentrations up to (T-lymphoid cells): > 833 nM

From patent US8404856B2, “Non-nucleoside reverse transcriptase inhibitors” (Merck Sharp & Dohme Corp., priority 2007, dated 2013)
